For assay [1], the system named is MM patients with amp1q chromosomal aberration. As to the kind of experiment: Overall survival (Kaplan Meier) of MM patients with amp1q by classical FISH, PAD versus VAD. In kind it is in vivo, human. The note with it: MM patients with an amp1q chromosomal aberration. The text has this: FIG. 1: Kaplan Meier curve showing 60 MM patients (see Table 2) identified as having an additional copy of chromosome 1q (amp1q) using classical FISH analysis. […] Upper line: amp1q cases treated with PAD; lower line: amp1q cases treated with VAD. Hazard Ratio=3.59, p=0.0037.
FIG. 1 provides a Kaplan-Meier curve wherein the top line represents amp1q cases treated with Bortezomib (a proteasome inhibitor), Adriamycin and Dexamethasone (PAD), and the bottom line represents amp1q cases treated with a conventional therapy (Vincristine Adriamycin Dexamethasone or VAD). A Hazard Ratio of 3.59 (p=0.0037) was found. It was concluded that MM patients with amp1q may be preferentially treated with a proteasome inhibitor such as Bortezomib since that provides these patients with a better life expectancy.
FISH analysis was performed in 304 patients. In nonpurified plasma cell samples (n=125), at least 200 interphase nuclei per sample were analyzed by the use of epi-fluorescence microscopy and image analysis software. Within several cases, a preceding analysis of selected myeloma cells was determined by immunoglobulin light chain counterstaining or morphology. In CD138-purified PC samples (n=179), 100 nuclei were evaluated by the use of an epifluorescence microscope (Leica Microsystems). […]

For assay [2], the system named is MM subjects without the amp1q chromosomal aberration. As to the kind of experiment: Response of MM patients without amp1q to proteasome inhibitor. Format: in vivo, human. The text has this: Methods for determining whether a subject with MM has an amp1q chromosomal aberration are known in the art, and any such methods may be used in aspects of this disclosure, although preferred embodiments will be disclosed herein below.

From patent US20170101684A1, “METHOD FOR DIAGNOSING AND TREATING MULTIPLE MYELOMA” (Erasmus University Medical Center Rotterdam, priority 2014, published 2017) come the findings set out here.

Take `CC(C)C[C@H](NC(=O)[C@H](Cc1ccccc1)NC(=O)c1cnccn1)B(O)O` [Bortezomib]: the Response to treatment entry was “respond well” in assay [1] and “do not experience this advantageous response” in assay [2].
